SMILES strings stand for the structures.

The first data set in a line: Lymphatic transport assay in mesenteric lymph-duct cannulated rats. The conditions noted are these: total MPA related compound, intraduodenal infusion, anesthetised mesenteric lymph-duct cannulated rats; class symbols. It counts as in vivo, rat. How it is done:
In order to assess the lymphatic transport of disclosed lipid prodrugs in rats, the mesenteric lymph ducts of the rats used in this study were cannulated to allow continual collection of mesenteric lymph. Lipid formulations containing the compound of interest were then administered to the animals, lymph was collected, and drug concentrations in the lymph samples were quantified.
Lipid-based formulations of the compounds of the invention or control compounds were prepared as previously described (Trevaskis, N. L. et al., Pharmaceutical Research, 2005, 22(11), 1863-1870, WO 2016/023082, and WO 2017/041139, hereby incorporated by reference.
In brief, either 1 or 2 mg of test prodrug, 40 mg oleic acid and 25 mg Tween 80 were mixed in a glass vial and incubated at 37° C. for 12-18 h to equilibrate. An aqueous phase consisting of 5.6 ml phosphate buffered saline (PBS, pH 7.4) was subsequently added to the lipid phase (MPA was dissolved in PBS for the preparation of MPA containing formulations) and the formulation emulsified by ultrasonication with a Misonix XL 2020 ultrasonic processor (Misonix, Farmingdale, NY, USA) equipped with a 3.2-mm microprobe tip running at 30% of the maximal amplitude of 240 μm and a frequency of 20 kHz for 2 min at room temperature. Doses for administering to more than one animal can be prepared in one batch by suitably increasing the quantities given above. Drug/prodrug concentrations in all formulations were verified using HPLC-MS.
Male Sprague-Dawley (SD) rats were selected for the lymphatic transport studies. Rats (typically 240-320 g) were maintained on a standard diet and fasted overnight with free access to water prior to experiments.
Anesthetized rats were placed on a heated pad at 37° C. and cannulas inserted into the duodenum (for formulation administration and rehydration), mesenteric lymph duct (for lymph collection), and carotid artery (in cases where blood collection was conducted). Post-surgery, rats were re-hydrated for 0.5 h via intraduodenal infusion of normal saline at 2.8 mL/h. The lipid formulations were infused into the duodenum at 2.8 mL/h for 2 h after which, normal saline was infused at 2.8 mL/h for the remainder of the experiment. Lymph was continuously collected for up to 8 h into pre-weighed Eppendorf tubes containing 10 μL of 1,000 IU/mL heparin. The collection tubes were changed hourly and lymph flow was measured gravimetrically. Aliquots of hourly lymph samples were stored at −20° C. prior to assay.
Drug concentration in lymph is expressed as total drug and includes free drug and drug associated with different glycerides. Lymph samples are first treated with a lipase or other appropriate conditions to liberate free active agent prior to measurement of active agent levels in the lymph. Treatment with a lipase or other hydrolysis conditions liberates free active agent from any corresponding re-esterified glycerides. Porcine pancreatic lipase is appropriate for this purpose. Alternatively, hydrolysis with 0.5 M NaOH may be used. For MPA “phenol” prodrugs (i.e. prodrugs linked to the triglyceride at the aromatic —OH group of MPA), hydrolysis was performed with 0.5 M NaOH except for the lymph samples collected from 3 rats in the group of compound I-20 (MPA-O-C12α′βMe-TG), which were hydrolyzed by porcine pancreatic lipase.
Transport of compounds into lymph during each hourly collection period was calculated from the product of the volume of lymph collected and the measured concentrations in lymph. For fluorescently-labelled compounds such as a BDP-conjugate, the concentrations of total compound may be measured by fluorescence spectroscopy without hydrolysis.
The results of the lymphatic transport assays are summarized in Table 2, below, and FIGS. 1-19. Table 2 summarizes lymphatic transport of total MPA related compound (% of administered dose) following intraduodenal infusion to anaesthetised, mesenteric lymph-duct cannulated rats. […]
With `CCCCCCCCCCCCCCCC(=O)OCC(COC(=O)CCCCCCCCCCCCCCC)OC(=O)CC(C)CCCCCCCC(C)C(=O)Oc1c(C/C=C(\C)CCC(=O)OC)c(OC)c(C)c2c1C(=O)OC2` (stereo not drawn) [I-20], the “Cumulative lymphatic transport % dose (Mean ± SD, or Range if n = 2)” value was “A (greater than 10% (>10%))”. `CCCCCCCCCCCCCCCC(=O)OCC(COC(=O)CCCCCCCCCCCCCCC)OC(=O)CC(C)CCCCCCCC(C)C(=O)OCOc1c(C/C=C(\C)CCC(=O)OC)c(OC)c(C)c2c1C(=O)OC2` (stereo not drawn) [I-44]: the “Cumulative lymphatic transport % dose (Mean ± SD, or Range if n = 2)” value was “A (greater than 10% (>10%))”. Turning to `CCCCCCCCCCCCCCCC(=O)OCC(COC(=O)CCCCCCCCCCCCCCC)OC(=O)C(C)CCCCCCCC(=O)Oc1c(C/C=C(\C)CCC(=O)OC)c(OC)c(C)c2c1C(=O)OC2` (stereo not drawn) [I-45], the “Cumulative lymphatic transport % dose (Mean ± SD, or Range if n = 2)” value was “A (greater than 10% (>10%))”. Take `CCCCCCCCCCCCCCCC(=O)OCC(COC(=O)CCCCCCCCCCCCCCC)OC(=O)CCCCCCCCCOC(=O)CC/C(C)=C/Cc1c(O)c2c(c(C)c1OC)COC2=O` [I-46]: the “Cumulative lymphatic transport % dose (Mean ± SD, or Range if n = 2)” value is recorded as “A (greater than 10% (>10%))”. For the compound `CCCCCCCCCCCCCCCC(=O)OCC(COC(=O)CCCCCCCCCCCCCCC)OC(=O)CCCCCCCCCCC(=O)Oc1cc(C)cc(C)c1C(C)(C)CC(=O)Oc1c(C/C=C(\C)CCC(=O)OC)c(OC)c(C)c2c1C(=O)OC2` [I-47], the “Cumulative lymphatic transport % dose (Mean ± SD, or Range if n = 2)” value was “B (between 1% and 10% (1%-10%))”. For the compound `CCCCCCCCCCCCCCCC(=O)OCC(COC(=O)CCCCCCCCCCCCCCC)OC(=O)CCCCCCCCCC(=O)Oc1c(C/C=C(\C)CCC(=O)OC)c(OC)c(C)c2c1C(=O)OC2` [I-48], the “Cumulative lymphatic transport % dose (Mean ± SD, or Range if n = 2)” value is “A (greater than 10% (>10%))”. Same read-out and setting: for `CCCCCCCCCCCCCCCC(=O)OCC(COC(=O)CCCCCCCCCCCCCCC)OC(=O)CC(C)CCCCCCCOC(=O)CC/C(C)=C/Cc1c(O)c2c(c(C)c1OC)COC2=O` (stereo not drawn) [I-50, (E)-2-((10-((6-(4-hydroxy-6-methoxy-7-methyl-3-oxo-1,3-dihydroisobenzofuran-5-yl)-4-methylhex-4-enoyl)oxy)-3-methyldecanoyl)oxy)propane-1,3-diyl dipalmitate] the value was “A (greater than 10% (>10%))”. `CCCCCCCCCCCCCCCC(=O)OCC(COC(=O)CCCCCCCCCCCCCCC)OC(=O)CC(C)CCCCCCCCCOC(=O)CC/C(C)=C/Cc1c(O)c2c(c(C)c1OC)COC2=O` (stereo not drawn) [I-51, (E)-2-((12-((6-(4-hydroxy-6-methoxy-7-methyl-3-oxo-1,3-dihydroisobenzofuran-5-yl)-4-methylhex-4-enoyl)oxy)-3-methyldodecanoyl)oxy)propane-1,3-diyl dipalmitate]: the “Cumulative lymphatic transport % dose (Mean ± SD, or Range if n = 2)” value is “A (greater than 10% (>10%))”. Consider `CCCCCCCCCCCCCCCC(=O)OCC(COC(=O)CCCCCCCCCCCCCCC)OC(=O)C(C)CCCCCCCCC(C)C(=O)Oc1cc(C)cc(C)c1C(C)(C)CC(=O)Oc1c(C/C=C(\C)CCC(=O)OC)c(OC)c(C)c2c1C(=O)OC2` (stereo not drawn) [I-52], for which the “Cumulative lymphatic transport % dose (Mean ± SD, or Range if n = 2)” value is “B (between 1% and 10% (1%-10%))”. As for `CCCCCCCCCCCCCCCC(=O)OCC(COC(=O)CCCCCCCCCCCCCCC)OC(=O)CC(C)CCCC(=O)Oc1c(C/C=C(\C)CCC(=O)OC)c(OC)c(C)c2c1C(=O)OC2` (stereo not drawn) [I-53], the “Cumulative lymphatic transport % dose (Mean ± SD, or Range if n = 2)” value is “A (greater than 10% (>10%))”. In the case of `CCCCCCCCCCCCCCCC(=O)OCC(COC(=O)CCCCCCCCCCCCCCC)OC(=O)CC(C)CCCCCCCC(C)C(=O)Oc1ccc(COc2c(C/C=C(\C)CCC(=O)OC)c(OC)c(C)c3c2C(=O)OC3)cc1` (stereo not drawn) [I-54, (E)-12-(1,3-bis(palmitoyloxy)propan-2-yl) 1-(4-(((6-methoxy-5-(6-methoxy-3-methyl-6-oxohex-2-en-1-yl)-7-methyl-3-oxo-1,3-dihydroisobenzofuran-4-yl)oxy)methyl)phenyl) 2,10-dimethyldodecanedioate], the “Cumulative lymphatic transport % dose (Mean ± SD, or Range if n = 2)” value was “B (between 1% and 10% (1%-10%))”. Turning to `CCCCCCCCCCCCCCCC(=O)OCC(COC(=O)CCCCCCCCCCCCCCC)OC(=O)CCCCCCCCCCCCCC(=O)Oc1c(C/C=C(\C)CCC(=O)OC)c(OC)c(C)c2c1C(=O)OC2` [I-57, (E)-1-(1,3-bis(palmitoyloxy)propan-2-yl) 15-(6-methoxy-5-(6-methoxy-3-methyl-6-oxohex-2-en-1-yl)-7-methyl-3-oxo-1,3-dihydroisobenzofuran-4-yl) pentadecanedioate], the “Cumulative lymphatic transport % dose (Mean ± SD, or Range if n = 2)” value is reported as “A (greater than 10% (>10%))”.

On to `CCCCCCCCCCCCCCCC(=O)OCC(COC(=O)CCCCCCCCCCCCCCC)OC(=O)CC(C)CCCCCCCC(C)C(=O)OC(C)Oc1c(C/C=C(\C)CCC(=O)OC)c(OC)c(C)c2c1C(=O)OC2` (stereo not drawn) [I-58, (E)-12-(1,3-bis(palmitoyloxy)propan-2-yl) 1-(1-((6-methoxy-5-(6-methoxy-3-methyl-6-oxohex-2-en-1-yl)-7-methyl-3-oxo-1,3-dihydroisobenzofuran-4-yl)oxy)ethyl) 2,10-dimethyldodecanedioate], for which the “Cumulative lymphatic transport % dose (Mean ± SD, or Range if n = 2)” value is “A (greater than 10% (>10%))”. Take `CCCCCCCCCCCCCCCC(=O)OCC(COC(=O)CCCCCCCCCCCCCCC)OC(=O)C(C)CCCCCCCCCC(=O)Oc1c(C/C=C(\C)CCC(=O)OC)c(OC)c(C)c2c1C(=O)OC2` (stereo not drawn) [I-60]: the “Cumulative lymphatic transport % dose (Mean ± SD, or Range if n = 2)” value is given as “A (greater than 10% (>10%))”.

In the case of `CCCCCCCCCCCCCCCC(=O)OCC(COC(=O)CCCCCCCCCCCCCCC)OC(=O)C(C)CCCCCCC(C)C(=O)Oc1c(C/C=C(\C)CCC(=O)OC)c(OC)c(C)c2c1C(=O)OC2` (stereo not drawn) [I-61], the “Cumulative lymphatic transport % dose (Mean ± SD, or Range if n = 2)” value is “A (greater than 10% (>10%))”. For the compound `CCCCCCCCCCCCCCCC(=O)OCC(COC(=O)CCCCCCCCCCCCCCC)OC(=O)CC(C)CCCCCCCC(C)C(=O)OCCCC(=O)Oc1c(C/C=C(\C)CCC(=O)OC)c(OC)c(C)c2c1C(=O)OC2` (stereo not drawn) [I-62, (E)-12-(1,3-bis(palmitoyloxy)propan-2-yl) 1-(4-((6-methoxy-5-(6-methoxy-3-methyl-6-oxohex-2-en-1-yl)-7-methyl-3-oxo-1,3-dihydroisobenzofuran-4-yl)oxy)-4-oxobutyl) 2,10-dimethyldodecanedioate], the “Cumulative lymphatic transport % dose (Mean ± SD, or Range if n = 2)” value is “A (greater than 10% (>10%))”.

A short description of the next data set: In vitro release of MPA from prodrugs in plasma supplemented with lipoprotein lipase (LPL). The conditions noted are these: 60 min; n = 3 unless specified otherwise. It counts as in vitro ADME, rat. How it is done: The percentage of MPA released at 60 minutes in LPL-supplemented rat plasma was also determined for selected compounds. […] The designation “**” indicates a release % of >25% to 50%. The designation “***” indicates a release % of >50% to 75%. The designation “****” indicates a release % of >75%.
In order to probe the release of free drug from TG prodrugs in the systemic circulation, prodrugs were incubated with plasma (rat, mouse, dog, pig or human) supplemented with lipoprotein lipase (LPL, 200 IU/ml). LPL is a key enzyme required for the hydrolysis of lipoprotein associated TG in the systemic circulation and is therefore expected to be a key contributor to lipolysis of the re-esterified drug-TG construct in plasma, largely via liberation of fatty acids in the sn-1 and the sn-3 position of the TG-mimetic, prior to drug release from the 2′ position via esterase hydrolysis. LPL is […] is tethered to the luminal surface of vascular endothelial cells under physiological conditions. In the current in vitro studies, plasma was therefore supplemented with LPL to better reflect the in vivo situation. To start hydrolysis, 10 μl of LPL solution (10,000 IU/ml) was added to a mixture of 10 μl of prodrug solution (1 mg/ml dissolved in acetonitrile) and 500 μl of blank plasma. The mixture was incubated at 37° C. Samples (20 μl) of the incubation solution were taken at 0, 5, 15, 30, 60, 90, 120 and 180 minutes post-incubation and added to 180 μl of MeCN to stop lipolysis. The mixture was vortexed and centrifuged at 4500×g for 5 minutes to precipitate proteins prior to analysis. The supernatant was analyzed by HPLC-MS/MS for the potential products (MG form, acid form, and free drug) of prodrug hydrolysis.
Regarding `CCCCCCCCCCCCCCCC(=O)OCC(COC(=O)CCCCCCCCCCCCCCC)OC(=O)CC(C)CCCCCCCC(C)C(=O)Oc1c(C/C=C(\C)CCC(=O)OC)c(OC)c(C)c2c1C(=O)OC2` (stereo not drawn) [I-20], the “Percentage MPA release at 60 min in LPL supplemented rat plasma” value is “*** (a release % of >50% to 75%)”.

The data set is the same for the next values; noted with them: after 180 min, rat plasma supplemented with LPL.
Consider `CCCCCCCCCCCCCCCC(=O)OCC(COC(=O)CCCCCCCCCCCCCCC)OC(=O)CC(C)CCCCCCCC(C)C(=O)Oc1c(C/C=C(\C)CCC(=O)OC)c(OC)c(C)c2c1C(=O)OC2` (stereo not drawn) [I-20], for which the “monoglyceride (MG) peak” value is listed as “almost completely disappeared”.
